# According to patent US10154957B2, “Microneedle device having a peptide therapeutic agent and an amino acid and methods of making and using the same” (3M INNOVATIVE PROPERTIES COMPANY, priority 2011, dated 2018):
# Marks after values point to notes of the source that are not given here.
# Experiment: Percent purity of PTHrP analogue in coating with varying His-HCl concentration, three storage conditions (HPLC)
# Format: physicochemical
# Details: peptide 10 mg/mL in PBS
# Protocol: The protein or polypeptide content in the formulation coated on the microneedle arrays was determined using an Agilent 1100 HPLC system (Agilent Technologies, Wilmington, Del.) equipped with a binary pump, well-plated thermostated autosampler, thermostated column compartment, and a diode array UV detector. A Zorbax 300SB-C8 column (Agilent Technologies, Wilmington, Del.) having a 5 μm particle size and 2.1×150 mm inner diameter was used for the separations. The column was maintained at 50° C. The mobile phase consisted of two eluents. Eluent A was 0.1% TFA (trifluoroacetic acid) in water and eluent B was 0.1% TFA in acetonitrile (Spectrum Chemical, New Brunswick, N.J.). A linear gradient from 80/20 to 50/50 (A/B) was applied over 30 minutes. The flow rate was 0.4 mL/minute and the UV detection wavelength was set at 214 nm. The total run time was 34 minutes and the sample injection volume was 15 μL.
# Five sample formulations were prepared containing 10 mg/mL of [Glu^22,25,Leu^23,28,31,Aib^29,Lys^26,30]hPTHrP(1-34)NH2 and varying concentrations of L-histidine monohydrochloride (His-HCl) in PBS. The concentrations of His-HCl in the sample formulations range from 1 mg/mL to 10 mg/mL. A control formulation was also prepared containing 10 mg/mL of [Glu^22,25,Leu^23,28,31,Aib^29,Lys^26,30]hPTHrP(1-34)NH2 in PBS. […] Microneedle arrays were coated with either the sample or the control formulations. The coating was applied by dropwise addition of 40 μL of the formulation to the portion of the array defined by the octagon shaped pattern of microneedles. The flood coated arrays (both sample and control formulation coated) were dried in an oven at 35° C. for 1.5 hours followed by 30° C. for 15 hours.
# After drying, the coated arrays were placed in a storage chamber that was maintained at one of three storage conditions: 40° C./96% RH (storage condition A); 25° C./60% RH (storage condition B); or 5° C./ambient RH. The [Glu^22,25,Leu^23,28,31,Aib^29,Lys^26,30]hPTHrP(1-34)NH2 content of the coated arrays was determined following storage in a chamber for 1 day, 3 days, 7 days, 14 days, 21 days, 28 days, and 2 months. The initial [Glu^22,25,Leu^23,28,31,Aib^29,Lys^26,30]hPTHrP(1-34)NH2 content was also determined using freshly coated arrays (both sample and control formulation coated). The arrays used to determine initial content were stored in a refrigerator at about 4° C. and analyzed within one day of being prepared. At the designated time point, an array was taken from the chamber and washed with PBS (3.5 mL) to remove the coating from the array. An aliquot of the resulting wash solution was analyzed for [Glu^22,25,Leu^23,28,31,Aib^29,Lys^26,30]hPTHrP(1-34)NH2 content using the HPLC method described above. The results were quantified against an external standard of [Glu^22,25,Leu^23,28,31,Aib^29,Lys^26,30]hPTHrP(1-34)NH2. At each time point, the percent purity of [Glu^22,25,Leu^23,28,31,Aib^29,Lys^26,30]hPTHrP(1-34)NH2 in the coating was determined by measuring the peak area for [Glu^22,25,Leu^23,28,31,Aib^29,Lys^26,30]hPTHrP(1-34)NH2 in the selected coating and dividing it by the total peak area measured for all [Glu^22,25,Leu^23,28,31,Aib^29,Lys^26,30]hPTHrP(1-34)NH2 related peaks.
substance,measurement,setting,value
"[Glu^22,25,Leu^23,28,31,Aib^29,Lys^26,30]hPTHrP(1-34)NH2","Percent Purity of [Glu^22,25, Leu^23,28,31, Aib^29, Lys^26,30]hPTHrP(1-34)NH2","Histidine-HCl 3.3 mg/mL, Storage Condition B (25° C./60% RH), Initial",99.3%
same,"Percent Purity of [Glu^22,25, Leu^23,28,31, Aib^29, Lys^26,30]hPTHrP(1-34)NH2","Histidine-HCl 5 mg/mL, Storage Condition A (40° C./96% RH), Day 1",98.7%
same,"Percent Purity of [Glu^22,25, Leu^23,28,31, Aib^29, Lys^26,30]hPTHrP(1-34)NH2","Histidine-HCl 5 mg/mL, Storage Condition A (40° C./96% RH), Day 3",97.5%
same,"Percent Purity of [Glu^22,25, Leu^23,28,31, Aib^29, Lys^26,30]hPTHrP(1-34)NH2","Histidine-HCl 5 mg/mL, Storage Condition A (40° C./96% RH), Day 7",92.0%
same,"Percent Purity of [Glu^22,25, Leu^23,28,31, Aib^29, Lys^26,30]hPTHrP(1-34)NH2","Histidine-HCl 5 mg/mL, Storage Condition A (40° C./96% RH), Day 14",65.1%
same,"Percent Purity of [Glu^22,25, Leu^23,28,31, Aib^29, Lys^26,30]hPTHrP(1-34)NH2","Histidine-HCl 5 mg/mL, Storage Condition A (40° C./96% RH), Day 21, the sample for analysis contained insoluble impurities",33.8^(a) percent
same,"Percent Purity of [Glu^22,25, Leu^23,28,31, Aib^29, Lys^26,30]hPTHrP(1-34)NH2","Histidine-HCl 5 mg/mL, Storage Condition A (40° C./96% RH), Initial",99.0%
same,"Percent Purity of [Glu^22,25, Leu^23,28,31, Aib^29, Lys^26,30]hPTHrP(1-34)NH2","Histidine-HCl 5 mg/mL, Storage Condition B (25° C./60% RH), 2 months",98.4%
same,"Percent Purity of [Glu^22,25, Leu^23,28,31, Aib^29, Lys^26,30]hPTHrP(1-34)NH2","Histidine-HCl 5 mg/mL, Storage Condition B (25° C./60% RH), Day 3",98.9%
same,"Percent Purity of [Glu^22,25, Leu^23,28,31, Aib^29, Lys^26,30]hPTHrP(1-34)NH2","Histidine-HCl 5 mg/mL, Storage Condition B (25° C./60% RH), Day 7",98.9%
same,"Percent Purity of [Glu^22,25, Leu^23,28,31, Aib^29, Lys^26,30]hPTHrP(1-34)NH2","Histidine-HCl 5 mg/mL, Storage Condition B (25° C./60% RH), Day 14",98.9%
same,"Percent Purity of [Glu^22,25, Leu^23,28,31, Aib^29, Lys^26,30]hPTHrP(1-34)NH2","Histidine-HCl 5 mg/mL, Storage Condition B (25° C./60% RH), Day 28",98.8%
same,"Percent Purity of [Glu^22,25, Leu^23,28,31, Aib^29, Lys^26,30]hPTHrP(1-34)NH2","Histidine-HCl 5 mg/mL, Storage Condition B (25° C./60% RH), Initial",99.0%
same,"Percent Purity of [Glu^22,25, Leu^23,28,31, Aib^29, Lys^26,30]hPTHrP(1-34)NH2","Histidine-HCl 10 mg/mL, Storage Condition A (40° C./96% RH), Day 1",98.7%
same,"Percent Purity of [Glu^22,25, Leu^23,28,31, Aib^29, Lys^26,30]hPTHrP(1-34)NH2","Histidine-HCl 10 mg/mL, Storage Condition A (40° C./96% RH), Day 3",98.5%
same,"Percent Purity of [Glu^22,25, Leu^23,28,31, Aib^29, Lys^26,30]hPTHrP(1-34)NH2","Histidine-HCl 10 mg/mL, Storage Condition A (40° C./96% RH), Day 7",97.7%
same,"Percent Purity of [Glu^22,25, Leu^23,28,31, Aib^29, Lys^26,30]hPTHrP(1-34)NH2","Histidine-HCl 10 mg/mL, Storage Condition A (40° C./96% RH), Day 14",94.9%
same,"Percent Purity of [Glu^22,25, Leu^23,28,31, Aib^29, Lys^26,30]hPTHrP(1-34)NH2","Histidine-HCl 10 mg/mL, Storage Condition A (40° C./96% RH), Day 21",80.8%
same,"Percent Purity of [Glu^22,25, Leu^23,28,31, Aib^29, Lys^26,30]hPTHrP(1-34)NH2","Histidine-HCl 10 mg/mL, Storage Condition A (40° C./96% RH), Initial",99.0%
same,"Percent Purity of [Glu^22,25, Leu^23,28,31, Aib^29, Lys^26,30]hPTHrP(1-34)NH2","Histidine-HCl 10 mg/mL, Storage Condition B (25° C./60% RH), Day 3",98.9%
same,"Percent Purity of [Glu^22,25, Leu^23,28,31, Aib^29, Lys^26,30]hPTHrP(1-34)NH2","Histidine-HCl 10 mg/mL, Storage Condition B (25° C./60% RH), Day 7",98.9%
same,"Percent Purity of [Glu^22,25, Leu^23,28,31, Aib^29, Lys^26,30]hPTHrP(1-34)NH2","Histidine-HCl 10 mg/mL, Storage Condition B (25° C./60% RH), Day 14",98.8%
same,"Percent Purity of [Glu^22,25, Leu^23,28,31, Aib^29, Lys^26,30]hPTHrP(1-34)NH2","Histidine-HCl 10 mg/mL, Storage Condition B (25° C./60% RH), Initial",99.0%
same,"Percent Purity of [Glu^22,25, Leu^23,28,31, Aib^29, Lys^26,30]hPTHrP(1-34)NH2","Histidine-HCl none, Storage Condition B (25° C./60% RH), 2 months",96.3%
same,"Percent Purity of [Glu^22,25, Leu^23,28,31, Aib^29, Lys^26,30]hPTHrP(1-34)NH2","Histidine-HCl none, Storage Condition B (25° C./60% RH), Day 3",97.9%
same,"Percent Purity of [Glu^22,25, Leu^23,28,31, Aib^29, Lys^26,30]hPTHrP(1-34)NH2","Histidine-HCl none, Storage Condition B (25° C./60% RH), Day 7",98.0%
same,"Percent Purity of [Glu^22,25, Leu^23,28,31, Aib^29, Lys^26,30]hPTHrP(1-34)NH2","Histidine-HCl none, Storage Condition B (25° C./60% RH), Day 14",97.7%
same,"Percent Purity of [Glu^22,25, Leu^23,28,31, Aib^29, Lys^26,30]hPTHrP(1-34)NH2","Histidine-HCl none, Storage Condition B (25° C./60% RH), Day 28",97.5%
same,"Percent Purity of [Glu^22,25, Leu^23,28,31, Aib^29, Lys^26,30]hPTHrP(1-34)NH2","Histidine-HCl none, Storage Condition B (25° C./60% RH), Initial",98.7%
